From patent US9040502B2, “Anti-XDR-TB drug, anti-MDR-TB drug, and combination anti-tuberculosis drug” (priority 2008, dated 2015)
Converted amounts (≈) assume the structure as drawn. Where two headings read alike, the source gives them in different places.

Assays:
[1] = system: M. tuberculosis XDR-TB (0306-0206); type: in vivo, Mycobacterium tuberculosis in BALB/c mice; details: BALB/c mice, i.v. infection; s.c., 14 doses; CPZEN-45 6.3-200 mg/kg, SM 25-200 mg/kg; Day 30
[2] = system: M. tuberculosis MDR (RFP, INH); test: MIC, agar multiple dilution method (Test Example 2); type: cell-based; details: Mycobacterium tuberculosis, 336 h
[3] = system: M. tuberculosis MDR (RFP, INH, KM EB, TH, PAS, EVM); test: as above; type: cell-based; details: Mycobacterium tuberculosis, 336 h
[4] = system: M. tuberculosis MDR (RFP, INH, KM, SM EB, TH); test: as above; type: cell-based; details: Mycobacterium tuberculosis, 336 h
[5] = system: M. tuberculosis XDR (RFP, INH, KM EB, TH, PAS, EVM, LVFX); test: as above; type: cell-based; details: Mycobacterium tuberculosis, 336 h
[6] = system: Mycobacterium tuberculosis XDR-TB (0306-0206); type: cell-based; details: Ratio Method

For `CCCCc1ccc(NC(=O)C2=CCN(C)[C@@H]([C@H](O[C@@H]3O[C@H](CN)[C@@H](O)[C@H]3O)[C@H]3O[C@@H](n4ccc(=O)[nH]c4=O)[C@H](O)[C@@H]3O)C(=O)N2C)cc1` [CPZEN-45, (S)-2-{[(2S,3R,4S,5R)-(5-aminomethyl-3,4-dihydroxyoxolan-2-yl)oxy][(2S,3S,4R,5R)-5-(2,4-dioxo-1,2,3,4-tetrahydropyrimidin-1-yl)-3,4-dihydroxyoxolan-2-yl]-(S)-methyl}-N-(4-butylphenyl)-1,4-dimethyl-3-oxo-1H-1,4-diazepine-5-carboxamide], the “Antibacterial effects (number of tuberculosis bacteria in lungs, liver and spleen, FIGS. 3 to 5)” value [1] was “antibacterial effects significantly higher than those of SM”, the MIC [2] was 6.25 µg/mL (≈ 9.07 µM) and the MIC [3] was 6.25 µg/mL (≈ 9.07 µM). It also gave an MIC [4] of 6.25 µg/mL (≈ 9.07 µM) and an MIC [5] of 6.25 µg/mL (≈ 9.07 µM).

For `N[C@@H]1CON=C1O` [CS, cycloserine], the “Determination (drug sensitivity)” value ([6]; drug concentration 30 μg/mL) was “S”.

In the case of `CC[C@@H](CO)NCCN[C@@H](CC)CO` [EB, ethambutol], the “Determination (drug sensitivity)” value ([6]; drug concentration 2.5 μg/mL) is reported as “R”.

For `NNC(=O)c1ccncc1` [INH, isonicotinic acid hydrazide], the “Determination (drug sensitivity)” value ([6]; drug concentration 1.0 μg/mL) was “R”.

`NC[C@H]1O[C@H](O[C@H]2[C@H](O)[C@@H](O[C@H]3O[C@H](CO)[C@@H](O)[C@H](N)[C@H]3O)[C@H](N)C[C@@H]2N)[C@H](O)[C@@H](O)[C@@H]1O` [KM, kanamycin] was tested, and the “Determination (drug sensitivity)” value ([6]; drug concentration 20 μg/mL) was “R”.

In the case of `C[C@H]1COc2c(N3CCN(C)CC3)c(F)cc3c(=O)c(C(=O)O)cn1c23` [LVFX, levofloxacin], the “Determination (drug sensitivity)” value ([6]; drug concentration 1.0 μg/mL) is reported as “R”.

For `Nc1ccc(C(=O)O)c(O)c1` [PAS, para-amino-salicylic acid], the “Determination (drug sensitivity)” value ([6]; drug concentration 0.5 μg/mL) was “R”.

With `CO[C@H]1/C=C/O[C@@]2(C)Oc3c(C)c(O)c4c(O)c(c(/C=N/N5CCN(C)CC5)c(O)c4c3C2=O)NC(=O)/C(C)=C\C=C\[C@H](C)[C@H](O)[C@@H](C)[C@@H](O)[C@@H](C)[C@H](OC(C)=O)[C@@H]1C` [RFP, rifampicin] the “Determination (drug sensitivity)” value ([6]; drug concentration 40 μg/mL) was “R”, the MIC [2] was greater than 40 µg/mL and the MIC [3] was greater than 40 µg/mL. The MIC [4] was greater than 40 µg/mL and the MIC [5] was greater than 40 µg/mL.

For `[H]/N=C(/N)N[C@H]1[C@H](O)[C@@H](O)[C@H](O[C@@H]2O[C@@H](C)[C@](O)(C=O)[C@H]2O[C@@H]2O[C@@H](CO)[C@H](O)[C@@H](O)[C@@H]2NC)[C@@H](N/C(N)=N\[H])[C@@H]1O` [SM, streptomycin], the “Determination (drug sensitivity)” value ([6]; drug concentration 10 μg/mL) was “R” and the “Antibacterial effects (number of tuberculosis bacteria in lungs, liver and spleen, FIGS. 3 to 5)” value [1] was “no antibacterial effects”.

With `CCc1cc(C(N)=S)ccn1` [TH, ethionamide] the “Determination (drug sensitivity)” value ([6]; drug concentration 20 μg/mL) was “R”.

In the case of enviomycin [EVM], the “Determination (drug sensitivity)” value ([6]; drug concentration 20 μg/mL) is reported as “R”.
